Experimental data as given in US5106407A, “Iodones and methods for antimicrobial use” (priority 1989, dated 1992).
In brackets after ≈: the same amount, converted by molar mass.

Legend:
[1] = system: Selenastrum capricornutum; assay: algaecide test, inhibition of growth; assay type: cell-based; settings: 96 hr incubation, read-out: growth of the algae, Percent of Control
Procedure: Using a Coulter Counter, the growth of this algea was measured after 96 hr incubation with various levels of biocide, i.e., (2-nitrophenyl)-iodonium 2,2-dimethyl-4,6-dioxo-1,3-dioxan-5-ylide.

[2] = system: bacteria listed in Table I, Klebsiella oxytoca, Enterobacter gergoviae, Pseudomonas putida #1, and Pseudomonas putida #2; assay: protein shampoo preservation test
Procedure: Fifty gram aliquots of the latex were placed in sterile bottles and one hundred gram aliquots of the diluted cutting oil were placed in 250-mL Erlenmeyer flasks. An appropriate amount of a fresh 1 percent stock solution of (2-nitrophenyl)-iodonium 2,2-dimethyl-4,6-dioxo-1,3-dioxan-5-ylide in acetone-water was added to achieve the desired final concentrations (see Tables 5 and 6). A small portion of the respective latex or cutting oil preparation was then streaked onto Tryptic Soy Agar (TSA) petri plates using sterile cotton swabs to determine whether the preparations were sterile. If the particular preparation was sterile, it was then inoculated with an appropriate volume (0.1 mL for the latex and 0.2 mL for the cutting oil) of a mixture of equal aliquots of 24 hr cultures of each of the bacterial organisms listed in Table 1 (not the fungi and yeast). The latex samples were incubated at 30° C. and the cutting oils were agitated on a rotary shaker at room temperature. After 24 hr, all samples were again streaked on TSA. All plates were then incubated at 30° C. for 48 hr and then rated 1 to 10 according to the growth rating system described in Table 4.
The results from this first set of streaks after inoculation are listed in the columns labeled streak number 1 in Tables 5 and 6. Samples with a rating of 3 or less from streak number 1 were reinoculated as described for the first inoculation above. Samples with a rating of 4 or greater were not reinoculated. After another 24 hr all samples were again restreaked on TSA agar. The results from these second streaks were labeled streak number 2 in Tables 5 and 6. Samples were reinoculated and restreaked in this fashion for a maximum of 10 streaks. Any samples with two streaks in a row with a ten rating were not restreaked again.
The ingredients of the hand creme, hand lotion, and protein shampoo are listed in Tables 7, 8 and 9, respectively. In the cosmetic preservative procedures, the stock solution of (2-nitrophenyl)-iodonium 2,2-dimethyl-4,6-dioxo-1,3-dioxan-5-ylide) was made in dimethylformamide (DMF)/water solution. In addition to the bacteria listed in Table I, the following bacteria were also included in the inocula: Klebsiella oxytoca, Enterobacter gergoviae, Pseudomonas putida #1, and Pseudomonas putida #2.

Bacillus subtilis = assay: minimum inhibitory concentration (MIC), agar dilution; assay type: cell-based; settings: Bacillus subtilis, ATCC8473; ATCC 8473; nutrient agar pH 6.8; read-out: MIC
Procedure: (§1) The minimum inhibitory concentration (MIC) for the compound of Example 19, i.e., (2-nitrophenyl)-iodonium 2,2-dimethyl-4,6-dioxo-1,3-dioxan-5-ylide was determined for 9 bacteria (using nutrient agar) and 5 yeast and fungi (using malt yeast agar). A one percent solution of this test compound (i.e., the compound of Example 19) was prepared in a mixture of acetone-water. Nutrient agar was prepared at pH 6.8 using deionized water according to standard Difco procedures. Malt yeast agar was prepared by adding 3 g Bacto yeast extract and 42 g Bacto Malt agar per liter of deionized water. The agar (nutrient agar when testing with bacteria and malt yeast agar when testing with yeast and fungi) was dispensed in 30 mL aliquots into 25×200 millimeter (mm) test tubes, capped and autoclaved for 15 min at 115° C. The test tubes containing the agar were cooled in a water bath until the temperature of the agar was 48° C. and then an appropriate amount of the one percent solution of the test compound was added (except in the controls where no test compound was added with the acetone-water) to the respective test tubes so that final concentrations of 500, 250, 100, 50, 25, 10, 5, 2.5, 1.0 and 0 parts per million (ppm) of the test compound in the agar were obtained. The agar solutions were each mixed and poured into individual petri plates so that each petri plate contained agar having a known concentration of test compound dispersed therein. After drying for 24 hr, the petri plates were inoculated with bacteria when the petri plates contained nutrient broth agar or with fungi and yeast when the petri plates contained malt yeast agar.
(§2) The inoculation with bacteria was accomplished using the following procedure. Twenty-four hr cultures of each of the bacteria were prepared by incubating the respective bacteria in tubes containing nutrient broth for 24 hr at 30° C. in a shaker. Dilutions of each of the 24 hr cultures were made so that 9 separate suspensions (one for each of the 9 test bacteria) were made, each containing about 10^8 colony forming units (CFU) per mL of suspension of a particular bacteria. Aliquots of 0.3 mL of each of the above suspensions were used to fill individual wells of a Steer's Replicator. For each microbial suspension, 0.3 mL was used to fill 3 wells (i.e., 3 wells of 0.3 mL each) so that for the 9 different bacteria 27 wells were filled. The Steer's Replicator was then used to inoculate the petri plates.
(§3) The petri plates were incubated at 30° C. for 48 hr and then read to determine if the test compound (i.e., the compound of Example 19) which was incorporated into the agar prevented growth of the respective bacteria. The minimum inhibitory concentration (MIC) for each bacteria was defined as the lowest concentration of the test compound which prevented growth of that bacteria.
(§4) In a similar procedure, the MIC (in ppm) of the compound of Example 11 (i.e., (2-nitrophenyl)-iodonium 2,6-dioxocyclohexylide) for various organisms was determined at an acid pH (about 6.8) and at an alkaline pH (about 8.2).
(§5) Using similar procedures, the MIC's (in ppm) of various compounds of Formula I and/or Formula II were determined for the organisms Enterobacter aerogenes and Bacillus subtilis in a neutral solution (pH about 6.8) and in an alkaline medium (pH about 8.2).

Enterobacter aerogenes = assay: as above; assay type: cell-based; settings: Klebsiella aerogenes, ATCC13048; ATCC 13048; nutrient agar pH 6.8; read-out: MIC
Procedure: as §1, §2, §3, §4, §5

CC1(C)OC(=O)[C-]([I+]c2ccccc2[N+](=O)[O-])C(=O)O1 [Example 19, (2-Nitrophenyl)-iodonium 2,2-dimethyl-4,6-dioxo-1,3-dioxan-5-ylide]
activity at 0.01 ppm ([1]; 0.01 ppm): 77% | activity at 0.1 ppm ([1]; 0.1 ppm): 2.4% | activity at 1 ppm ([1]; 1.0 ppm): 0.65% | activity at 10 ppm ([1]; 10 ppm): 0.59% | activity at 32 ppm ([1]; 32 ppm): 0.53% | growth rating ([2]; 10 ppm, streak 1): 1 (0) | growth rating ([2]; 10 ppm, streak 2): 1 (0) | growth rating ([2]; 10 ppm, streak 10): 1 (0) | growth rating ([2]; 25 ppm, streak 1): 1 (0) | growth rating ([2]; 25 ppm, streak 2): 1 (0) | growth rating ([2]; 25 ppm, streak 3): 1 (0) | growth rating ([2]; 25 ppm, streak 4): 1 (0) | growth rating ([2]; 25 ppm, streak 5): 1 (0) | growth rating ([2]; 25 ppm, streak 6): 1 (0) | growth rating ([2]; 25 ppm, streak 7): 1 (0) | growth rating ([2]; 25 ppm, streak 8): 1 (0) | growth rating ([2]; 25 ppm, streak 9): 1 (0) | growth rating ([2]; 25 ppm, streak 10): 1 (0) | growth rating ([2]; 50 ppm, streak 1): 1 (0) | growth rating ([2]; 50 ppm, streak 2): 1 (0) | growth rating ([2]; 50 ppm, streak 3): 1 (0) | growth rating ([2]; 50 ppm, streak 4): 1 (0) | growth rating ([2]; 50 ppm, streak 5): 1 (0) | growth rating ([2]; 50 ppm, streak 6): 1 (0) | growth rating ([2]; 50 ppm, streak 7): 1 (0) | growth rating ([2]; 50 ppm, streak 8): 1 (0) | growth rating ([2]; 50 ppm, streak 9): 1 (0) | growth rating ([2]; 50 ppm, streak 10): 1 (0) | growth rating ([2]; 100 ppm, streak 1): 1 (0) | growth rating ([2]; 100 ppm, streak 2): 1 (0) | growth rating ([2]; 100 ppm, streak 3): 1 (0) | growth rating ([2]; 100 ppm, streak 4): 1 (0) | growth rating ([2]; 100 ppm, streak 5): 1 (0) | growth rating ([2]; 100 ppm, streak 6): 1 (0) | growth rating ([2]; 100 ppm, streak 7): 1 (0) | growth rating ([2]; 100 ppm, streak 8): 1 (0) | growth rating ([2]; 100 ppm, streak 9): 1 (0) | growth rating ([2]; 100 ppm, streak 10): 4 (11-25) | MIC (Bacillus subtilis): ≤ 1 µg/mL | MIC (Enterobacter aerogenes): 1 µg/mL (≈ 2.56 µM)
